Columns and labels:
Test in all cases: relative viability (nuclei count vs DMSO), 5 days (fraction); higher = more cells survive
XMD8-85 + Pictilisib = compound: CN1CCN(CC1)C2=CC(=C(C=C2)NC3=NC=C4C(=N3)N(C5=CC=CC=C5C(=O)N4C)C)OC [XMD8-85] + CS(=O)(=O)N1CCN(Cc2cc3nc(-c4cccc5[nH]ncc45)nc(N4CCOCC4)c3s2)CC1 [Pictilisib] (partner 1 µM)
How it was run: (§1)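 Each reported value is a median over duplicate plates. It expresses relative viability: treated-well nuclei count divided by vehicle-well nuclei count. Lung cancer cell lines in 1536-well plates were dosed by pin tool a day after seeding, alone with one drug or with a fixed anchor-drug dose plus five library-drug doses (not always all listed) in √10 steps, and nuclei were counted after 5 days.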

XMD8-85 + Decitabine = compound: CN1CCN(CC1)C2=CC(=C(C=C2)NC3=NC=C4C(=N3)N(C5=CC=CC=C5C(=O)N4C)C)OC [XMD8-85] + Nc1ncn([C@H]2C[C@H](O)[C@@H](CO)O2)c(=O)n1 [Decitabine] (partner 2 µM)
How it was run: as §1

4EGI-1 + Trametinib = compound: O=C(O)C(Cc1ccccc1[N+](=O)[O-])=NNc1nc(-c2ccc(Cl)c(Cl)c2)cs1 (mixture of isomers) [4EGI-1] + CC(=O)Nc1cccc(-n2c(=O)n(C3CC3)c(=O)c3c(Nc4ccc(I)cc4F)n(C)c(=O)c(C)c32)c1 [Trametinib] (partner 0.02 µM)
How it was run: as §1

4EGI-1 + AZD7762 = compound: O=C(O)C(Cc1ccccc1[N+](=O)[O-])=NNc1nc(-c2ccc(Cl)c(Cl)c2)cs1 (mixture of isomers) [4EGI-1] + NC(=O)Nc1cc(-c2cccc(F)c2)sc1C(=O)N[C@H]1CCCNC1 [AZD7762] (partner 0.2 µM)
How it was run: as §1

Cell Line | relative viability (XMD8-85 + Pictilisib; first compound 0.253 µM) | relative viability (XMD8-85 + Pictilisib; first compound 0.8 µM) | relative viability (XMD8-85 + Pictilisib; first compound 2.53 µM) | relative viability (XMD8-85 + Pictilisib; first compound 8 µM) | relative viability (XMD8-85 + Decitabine; first compound 0.08 µM) | relative viability (XMD8-85 + Decitabine; first compound 0.253 µM) | relative viability (XMD8-85 + Decitabine; first compound 0.8 µM) | relative viability (XMD8-85 + Decitabine; first compound 2.53 µM) | relative viability (XMD8-85 + Decitabine; first compound 8 µM) | relative viability (4EGI-1 + Trametinib; first compound 0.5 µM) | relative viability (4EGI-1 + Trametinib; first compound 5 µM) | relative viability (4EGI-1 + Trametinib; first compound 15.81 µM) | relative viability (4EGI-1 + Trametinib; first compound 50 µM) | relative viability (4EGI-1 + AZD7762; first compound 0.5 µM) | relative viability (4EGI-1 + AZD7762; first compound 5 µM) | relative viability (4EGI-1 + AZD7762; first compound 15.81 µM) | relative viability (4EGI-1 + AZD7762; first compound 50 µM) | relative viability (XMD8-85 + Pictilisib; first compound 0.08 µM) | relative viability (4EGI-1 + Trametinib; first compound 1.581 µM) | relative viability (4EGI-1 + AZD7762; first compound 1.581 µM)
NCI-H650 | 0.892 | 0.846 | 0.8 | 0.524 | 0.336 | 0.3 | 0.354 | 0.309 | 0.324 | 1.07 | 1.02 | 0.984 | 0.833 | 1.09 | 0.978 | 0.912 | 0.318 |  |  | 
NCI-H1355 | 0.41 | 0.485 | 0.449 | 0.33 | 0.359 | 0.308 | 0.345 | 0.355 | 0.329 | 0.47 | 0.372 | 0.319 | 0.33 | 0.865 | 0.801 | 0.769 | 0.27 | 0.458 | 0.428 | 0.69
HOP-62 | 0.723 | 0.858 | 0.559 | 0.232 | 0.235 | 0.199 | 0.186 | 0.228 | 0.236 | 0.415 | 0.329 | 0.28 | 0.234 | 0.878 | 0.54 | 0.454 | 0.101 | 0.734 | 0.356 | 0.408
BEN | 0.547 |  | 0.483 | 0.38 | 0.761 | 0.671 | 0.757 | 0.66 | 0.483 | 1.32 | 1.18 | 0.976 | 0.901 | 0.76 | 0.689 | 0.593 | 0.382 | 0.535 | 1.05 | 0.657
NCI-H1651 | 0.454 | 0.584 | 0.534 | 0.44 | 0.595 | 0.592 | 0.601 | 0.67 | 0.506 | 0.914 | 0.863 | 0.796 | 0.831 | 0.519 | 0.521 | 0.31 | 0.195 | 0.527 | 0.775 | 0.43
NCI-H1666 | 0.375 | 0.391 | 0.312 | 0.44 | 0.703 | 0.724 |  | 0.692 | 0.68 | 0.914 | 0.811 | 0.774 | 0.66 | 0.81 | 0.757 | 0.497 | 0.341 | 0.522 | 0.822 | 0.68
LCLC-103H | 0.615 | 0.66 | 0.598 | 0.462 | 0.789 | 0.763 | 0.713 | 0.688 | 0.605 | 0.684 | 0.626 | 0.581 | 0.465 | 0.868 | 0.788 | 0.756 | 0.446 | 0.606 | 0.634 | 0.727
LU99A | 0.302 | 0.339 | 0.367 | 0.33 | 0.919 | 0.86 | 1.08 | 0.769 | 0.694 | 0.516 | 0.583 | 0.538 | 0.307 | 0.546 | 0.323 | 0.237 | 0.141 | 0.32 | 0.436 | 0.235
NCI-H322M | 0.501 | 0.502 | 0.527 | 0.409 | 0.688 | 0.659 | 0.707 | 0.644 | 0.606 | 0.525 | 0.476 | 0.514 | 0.452 | 0.604 | 0.563 | 0.417 | 0.36 | 0.551 |  | 

Source: the supplement of paper PMC10307832
